Measurements from paper PMC6543826 (Bioorganic chemistry, 2018).
Several values for one entry are separate records, joined by “and”; a condition that tells them apart may be missing. Equal entries are not always repeated.

Key:
CCRF-CEM = experiment: cells; type: cell-based
HL-60 (TB) = experiment: cells; type: cell-based
K-562 = experiment: cells; type: cell-based
MOLT-4 = experiment: cells; type: cell-based
HOP-62 = experiment: cells; type: cell-based
NCI-H23 = experiment: cells; type: cell-based
NCI-H322M = experiment: cells; type: cell-based
NCI-H460 = experiment: cells; type: cell-based
NCI-H522 = experiment: cells; type: cell-based
HCC-2998 = experiment: cells; type: cell-based
HCT-116 = experiment: cells; type: cell-based
HCT-15 = experiment: cells; type: cell-based
HT29 = experiment: cells; type: cell-based
KM 12 = experiment: cells; type: cell-based
SW-620 = experiment: cells; type: cell-based
SF-268 = experiment: cells; type: cell-based
SNB-19 = experiment: cells; type: cell-based
SNB-75 = experiment: cells; type: cell-based
LOX IMVI = experiment: cells; type: cell-based
MALME-3M = experiment: cells; type: cell-based
M14 = experiment: cells; type: cell-based
MDA-MB-435 = experiment: cells; type: cell-based
SK-MEL-5 = experiment: cells; type: cell-based
IGROV1 = experiment: cells; type: cell-based
OVCAR-3 = experiment: cells; type: cell-based
OVCAR-4 = experiment: cells; type: cell-based
SK-OV-3 = experiment: cells; type: cell-based
ACHN = experiment: cells; type: cell-based
RXF 393 = experiment: cells; type: cell-based
SN12C = experiment: cells; type: cell-based
UO-31 = experiment: cells; type: cell-based
PC-3 = experiment: cells; type: cell-based
DU-145 = experiment: cells; type: cell-based
BT-549 = experiment: cells; type: cell-based
T-47D = experiment: cells; type: cell-based
MDA-MB-468 = experiment: cells; type: cell-based
JNK2 = JNK2 (Homo sapiens, UniProt P45984); experiment: in vitro kinase assay, GST-c-Jun; type: biochemical
Sequence of JNK2 (P45984 whole entry): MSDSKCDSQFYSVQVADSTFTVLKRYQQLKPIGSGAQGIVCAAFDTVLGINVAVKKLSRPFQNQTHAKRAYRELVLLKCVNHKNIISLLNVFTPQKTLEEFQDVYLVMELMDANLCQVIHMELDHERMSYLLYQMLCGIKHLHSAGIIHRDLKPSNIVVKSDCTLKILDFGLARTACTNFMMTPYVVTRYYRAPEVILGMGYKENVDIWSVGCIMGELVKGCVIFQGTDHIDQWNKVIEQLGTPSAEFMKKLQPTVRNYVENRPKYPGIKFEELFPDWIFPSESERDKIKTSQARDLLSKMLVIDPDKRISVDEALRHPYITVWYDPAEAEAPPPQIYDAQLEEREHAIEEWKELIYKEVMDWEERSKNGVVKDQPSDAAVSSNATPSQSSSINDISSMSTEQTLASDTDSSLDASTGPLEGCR

p38MAPKα = p38MAPKα (Homo sapiens, UniProt Q16539); experiment: in vitro kinase assay, GST-ATF2; type: biochemical
Sequence of p38MAPKα (Q16539 whole entry): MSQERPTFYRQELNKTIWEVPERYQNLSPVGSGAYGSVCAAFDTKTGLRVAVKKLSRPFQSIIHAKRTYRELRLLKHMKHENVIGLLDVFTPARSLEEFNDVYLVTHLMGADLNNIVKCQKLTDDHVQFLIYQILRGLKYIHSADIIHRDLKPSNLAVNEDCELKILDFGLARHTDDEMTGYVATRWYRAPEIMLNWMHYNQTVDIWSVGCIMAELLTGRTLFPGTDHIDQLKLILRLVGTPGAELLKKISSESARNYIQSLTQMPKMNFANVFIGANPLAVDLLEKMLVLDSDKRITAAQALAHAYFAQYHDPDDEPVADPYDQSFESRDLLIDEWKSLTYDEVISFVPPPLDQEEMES

## O=C1c2ccccc2C(=O)c2c1oc1c2c(=O)[nH]c2ccc(Cl)cc21 [3b, 2-Chloronaphtho[2′,3′:4,5]furo[3,2-c]quinoline-6,7,12(5H)-trione]
CCRF-CEM; 10^−5 M, 48 h
  Growth percent (G%): 29.04%
CCRF-CEM; Homo sapiens
  GI50: 410 nM
CCRF-CEM; Homo sapiens, read-out: LC50
  CC50: > 100000 nM
CCRF-CEM; five-dose
  TGI: 4860 nM
HL-60 (TB); HL-60(TB), 10^−5 M, 48 h
  Growth percent (G%): 94.52%
HL-60 (TB); HL-60 (TB), five-dose
  TGI: 5250 nM
HL-60 (TB); Homo sapiens, HL-60
  GI50: 1700 nM
HL-60 (TB); Homo sapiens, HL-60, read-out: LC50
  CC50: 34800 nM
K-562; Homo sapiens, K562
  GI50: 370 nM
K-562; Homo sapiens, K562, read-out: LC50
  CC50: 50100 nM
K-562; K-562, 10^−5 M, 48 h
  Growth percent (G%): 12.90%
K-562; K-562, five-dose
  TGI: 2000 nM
MOLT-4; Homo sapiens, MOLT-4
  GI50: 440 nM
MOLT-4; Homo sapiens, MOLT-4, read-out: LC50
  CC50: > 100000 nM
MOLT-4; MOLT-4, 10^−5 M, 48 h
  Growth percent (G%): 18.44%
MOLT-4; MOLT-4, five-dose
  TGI: 3160 nM
HOP-62; HOP-62, 10^−5 M, 48 h
  Growth percent (G%): −38.70%
HOP-62; HOP-62, five-dose
  TGI: 650 nM
HOP-62; Homo sapiens, HOP-62
  GI50: 200 nM
HOP-62; Homo sapiens, HOP-62, read-out: LC50
  CC50: 3240 nM
NCI-H23; Homo sapiens, NCI-H23
  GI50: 350 nM
NCI-H23; Homo sapiens, NCI-H23, read-out: LC50
  CC50: 7080 nM
NCI-H23; NCI-H23, 10^−5 M, 48 h
  Growth percent (G%): 21.21%
NCI-H23; NCI-H23, five-dose
  TGI: 1820 nM
NCI-H322M; 10^−5 M, 48 h
  Growth percent (G%): 13.98%
NCI-H322M; Homo sapiens
  GI50: 320 nM
NCI-H322M; Homo sapiens, read-out: LC50
  CC50: 7240 nM
NCI-H322M; five-dose
  TGI: 1450 nM
NCI-H460; Homo sapiens, NCI-H460
  GI50: 220 nM
NCI-H460; Homo sapiens, NCI-H460, read-out: LC50
  CC50: 1480 nM
NCI-H460; NCI-H460, 10^−5 M, 48 h
  Growth percent (G%): −69.73%
NCI-H460; NCI-H460, five-dose
  TGI: 490 nM
NCI-H522; Homo sapiens, NCI-H522
  GI50: 320 nM
NCI-H522; Homo sapiens, NCI-H522, read-out: LC50
  CC50: 8130 nM
NCI-H522; NCI-H522, 10^−5 M, 48 h
  Growth percent (G%): −16.76%
NCI-H522; NCI-H522, five-dose
  TGI: 1380 nM
HCC-2998; HCC-2998, 10^−5 M, 48 h
  Growth percent (G%): 65.07%
HCC-2998; HCC-2998, five-dose
  TGI: 2570 nM
HCC-2998; Homo sapiens, HCC 2998, read-out: LC50
  CC50: 9120 nM
HCT-116; HCT-116, 10^−5 M, 48 h
  Growth percent (G%): −12.24%
HCT-116; HCT-116, five-dose
  TGI: 1100 nM
HCT-116; Homo sapiens, HCT-116
  GI50: 310 nM
HCT-116; Homo sapiens, HCT-116, read-out: LC50
  CC50: 4570 nM
HCT-15; HCT-15, 10^−5 M, 48 h
  Growth percent (G%): −31.10%
HCT-15; HCT-15, five-dose
  TGI: 510 nM
HCT-15; Homo sapiens, HCT-15
  GI50: 210 nM
HCT-15; Homo sapiens, HCT-15, read-out: LC50
  CC50: 2000 nM
HT29; HT29, 10^−5 M, 48 h
  Growth percent (G%): 66.37%
HT29; HT29, five-dose
  TGI: 12880 nM
HT29; Homo sapiens, HT-29
  GI50: 3720 nM
HT29; Homo sapiens, HT-29, read-out: LC50
  CC50: 39800 nM
KM 12; Homo sapiens, KM12
  GI50: 450 nM
KM 12; Homo sapiens, KM12, read-out: LC50
  CC50: 27500 nM
KM 12; KM 12, 10^−5 M, 48 h
  Growth percent (G%): 0.12%
KM 12; KM 12, five-dose
  TGI: 3020 nM
SW-620; Homo sapiens, SW-620
  GI50: 330 nM
SW-620; Homo sapiens, SW-620, read-out: LC50
  CC50: 7590 nM
SW-620; SW-620, 10^−5 M, 48 h
  Growth percent (G%): −53.04%
SW-620; SW-620, five-dose
  TGI: 1000 nM
SF-268; Homo sapiens, SF-268
  GI50: 460 nM
SF-268; Homo sapiens, SF-268, read-out: LC50
  CC50: 49000 nM
SF-268; SF-268, 10^−5 M, 48 h
  Growth percent (G%): −31.69%
SF-268; SF-268, five-dose
  TGI: 3980 nM
SNB-19; Homo sapiens, SNB-19
  GI50: 310 nM
SNB-19; Homo sapiens, SNB-19, read-out: LC50
  CC50: 6170 nM
SNB-19; SNB-19, 10^−5 M, 48 h
  Growth percent (G%): 7.11%
SNB-19; SNB-19, five-dose
  TGI: 1100 nM
SNB-75; Homo sapiens, SNB-75
  GI50: 160 nM
SNB-75; Homo sapiens, SNB-75, read-out: LC50
  CC50: 1290 nM
SNB-75; SNB-75, 10^−5 M, 48 h
  Growth percent (G%): −9.01%
SNB-75; SNB-75, five-dose
  TGI: 420 nM
LOX IMVI; 10^−5 M, 48 h
  Growth percent (G%): 11.13%
LOX IMVI; Homo sapiens
  GI50: 320 nM
LOX IMVI; Homo sapiens, read-out: LC50
  CC50: 3980 nM
LOX IMVI; five-dose
  TGI: 1320 nM
MALME-3M; Homo sapiens, Malme-3M
  GI50: 230 nM
MALME-3M; Homo sapiens, Malme-3M, read-out: LC50
  CC50: 850 nM
MALME-3M; MALME-3M, 10^−5 M, 48 h
  Growth percent (G%): −51.66%
M14; Homo sapiens, M14
  GI50: 400 nM
M14; Homo sapiens, M14, read-out: LC50
  CC50: 4570 nM
M14; M14, 10^−5 M, 48 h
  Growth percent (G%): 10.44%
M14; M14, five-dose
  TGI: 1510 nM
MDA-MB-435; Homo sapiens, MDA-MB-435
  GI50: 300 nM
MDA-MB-435; Homo sapiens, MDA-MB-435, read-out: LC50
  CC50: 4070 nM
MDA-MB-435; MDA-MB-435, 10^−5 M, 48 h
  Growth percent (G%): 10.25%
MDA-MB-435; MDA-MB-435, five-dose
  TGI: 1200 nM
SK-MEL-5; Homo sapiens, SK-MEL-5
  GI50: 1300 nM
SK-MEL-5; Homo sapiens, SK-MEL-5, read-out: LC50
  CC50: 3720 nM
SK-MEL-5; SK-MEL-5, 10^−5 M, 48 h
  Growth percent (G%): 12.31%
SK-MEL-5; SK-MEL-5, five-dose
  TGI: 1200 nM
IGROV1; Homo sapiens, IGROV-1
  GI50: 220 nM
IGROV1; Homo sapiens, IGROV-1, read-out: LC50
  CC50: 3470 nM
IGROV1; IGROV1, 10^−5 M, 48 h
  Growth percent (G%): −3.63%
IGROV1; IGROV1, five-dose
  TGI: 740 nM
OVCAR-3; Homo sapiens, OVCAR-3
  GI50: 240 nM
OVCAR-3; Homo sapiens, OVCAR-3, read-out: LC50
  CC50: 1820 nM
OVCAR-3; OVCAR-3, 10^−5 M, 48 h
  Growth percent (G%): −68.37%
OVCAR-3; OVCAR-3, five-dose
  TGI: 560 nM
OVCAR-4; Homo sapiens, OVCAR-4
  GI50: 170 nM
OVCAR-4; Homo sapiens, OVCAR-4, read-out: LC50
  CC50: 1510 nM
OVCAR-4; OVCAR-4, 10^−5 M, 48 h
  Growth percent (G%): −42.04%
OVCAR-4; OVCAR-4, five-dose
  TGI: 450 nM
SK-OV-3; Homo sapiens, SK-OV-3
  GI50: 350 nM
SK-OV-3; Homo sapiens, SK-OV-3, read-out: LC50
  CC50: 5620 nM
SK-OV-3; SK-OV-3, 10^−5 M, 48 h
  Growth percent (G%): 1.64%
SK-OV-3; SK-OV-3, five-dose
  TGI: 1780 nM
ACHN; 10^−5 M, 48 h
  Growth percent (G%): −14.18%
ACHN; Homo sapiens
  GI50: 200 nM
ACHN; Homo sapiens, read-out: LC50
  CC50: 2630 nM
ACHN; five-dose
  TGI: 580 nM
RXF 393; Homo sapiens, RXF 393
  GI50: 210 nM
RXF 393; Homo sapiens, RXF 393, read-out: LC50
  CC50: 2510 nM
RXF 393; RXF 393, 10^−5 M, 48 h
  Growth percent (G%): −46.34%
RXF 393; RXF 393, five-dose
  TGI: 580 nM
SN12C; 10^−5 M, 48 h
  Growth percent (G%): −26.26%
SN12C; Homo sapiens
  GI50: 200 nM
SN12C; Homo sapiens, read-out: LC50
  CC50: 1350 nM
SN12C; five-dose
  TGI: 470 nM
UO-31; Homo sapiens, UO-31
  GI50: 190 nM
UO-31; Homo sapiens, UO-31, read-out: LC50
  CC50: 2510 nM
UO-31; UO-31, 10^−5 M, 48 h
  Growth percent (G%): −54.91%
UO-31; UO-31, five-dose
  TGI: 600 nM
PC-3; Homo sapiens, PC-3
  GI50: 180 nM
PC-3; Homo sapiens, PC-3, read-out: LC50
  CC50: 1580 nM
PC-3; PC-3, 10^−5 M, 48 h
  Growth percent (G%): −33.26%
PC-3; PC-3, five-dose
  TGI: 460 nM
DU-145; DU-145, 10^−5 M, 48 h
  Growth percent (G%): −45.39%
DU-145; DU-145, five-dose
  TGI: 780 nM
DU-145; Homo sapiens, DU-145
  GI50: 280 nM
DU-145; Homo sapiens, DU-145, read-out: LC50
  CC50: 12300 nM
BT-549; BT-549, 10^−5 M, 48 h
  Growth percent (G%): 37.99%
BT-549; BT-549, five-dose
  TGI: 1320 nM
BT-549; Homo sapiens, BT-549
  GI50: 300 nM
BT-549; Homo sapiens, BT-549, read-out: LC50
  CC50: 6760 nM
T-47D; Homo sapiens, T47D
  GI50: 260 nM
T-47D; Homo sapiens, T47D, read-out: LC50
  CC50: 5130 nM
T-47D; T-47D, 10^−5 M, 48 h
  Growth percent (G%): −58.11%
T-47D; T-47D, five-dose
  TGI: 980 nM
MDA-MB-468; Homo sapiens, MDA-MB-468
  GI50: 250 nM
MDA-MB-468; Homo sapiens, MDA-MB-468, read-out: LC50
  CC50: 4570 nM
MDA-MB-468; MDA-MB-468, 10^−5 M, 48 h
  Growth percent (G%): −32.41%
MDA-MB-468; MDA-MB-468, five-dose
  TGI: 870 nM
JNK2
  IC50: 24000 ± 1240 nM
  ability to inhibit JNK2 (in words): little tendency to inhibit
p38MAPKα
  ability to inhibit p38MAPKα (in words): little tendency to inhibit
p38MAPKα; p38MAPKα IC50, 10 μM GST-ATF2
  IC50: 28000 nM and 27900 nM
